Where two headings read alike, the source gives them in different places.
Assays:
onychomycosis = conditions: continuous therapy (ingestion); cited from earlier work
[1] = cited from earlier work
Onychomycosis fungi = test: Addition of undecylenic acid or hydroquinone to cyanoacrylate ester on infected nails; format: in vivo; conditions: for effect on yellow color of infected nails: added to cyanoacrylate ester

CN(C/C=C/C#CC(C)(C)C)Cc1cccc2ccccc12 [Lamisil, terbinafine]
Cure of all nails (share of subjects) (onychomycosis): 25%
complete cure (onychomycosis): 41%
mycological cure (onychomycosis): 71%

2-ETHYL CYANO ACRYLATE
Soluble In ([1]; Cured State): Pacer X-8 Debonder, Acetone,
Soluble In ([1]; Liquid State): Acetone, MEK, Nitromethane

Oc1ccc(O)cc1 [hydroquine]
effect on yellow color of infected nails (Onychomycosis fungi): remove the yellow-color of infected nails

C=CCCCCCCCCC(=O)O [undecylenic acid]
effect on yellow color of infected nails (Onychomycosis fungi): remove the yellow-color of infected nails
effect on spread of infection (Onychomycosis fungi; addition of 1-12%, preferably 2-10%): inhibit the spread of infection
